In one assay the target is T1, human cathepsin F (Homo sapiens, UniProt Q9UBX1).
T1 sequence (Q9UBX1 271-484): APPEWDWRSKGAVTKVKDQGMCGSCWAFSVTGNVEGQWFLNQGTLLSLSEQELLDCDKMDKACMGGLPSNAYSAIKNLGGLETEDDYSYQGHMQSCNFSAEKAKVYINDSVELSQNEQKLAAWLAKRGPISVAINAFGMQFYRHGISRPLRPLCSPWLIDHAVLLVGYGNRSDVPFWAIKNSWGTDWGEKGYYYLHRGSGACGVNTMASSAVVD
The assay is described as follows: Cathepsin F Assay. The format is biochemical. The conditions noted are these: IP from dose response curve; Z-Phe-Arg-AMC substrate, pH 5.5; read-out: hCat F (IP (nM)). The method, boiled down:
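Human cathepsin F (10 nM) preincubated 15 min at room temperature with compounds in 50 mM MES pH 5.5, 2.5 mM EDTA, 2.5 mM DTT, 10% DMSO. Z-Phe-Arg-AMC (8 μM) added; AMC release read by fluorescence (Ex 360/Em 460 nm) over 20 min, inhibition fit to dose-response model.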

The next assay has as its target human cathepsin K (UniProt P43236, Y175D/V274L, species not given). As to the kind of experiment: Cathepsin K Assay. It counts as biochemical. The settings on record: IP from dose response curve; Z-Leu-Arg-AMC substrate, pH 5.5; read-out: hrbCat K (IP (nM)).

The results in this text go back to US9656990B2, “Cathepsin cysteine protease inhibitors” (Merck Sharp & Dohme Corp., priority 2014, dated 2017).

On to `Cc1c(-c2ccc(N3CCS(=O)(=O)CC3)cc2)c([C@@H]2CCCC[C@H]2C(=O)N[C@@H](C)C#N)nn1-c1ccc(F)cn1` [Example 66, (1R,2R)-N-((S)-1-cyanoethyl)-2-(4-(4-(1,1-dioxidothiomorpholino)phen-yl)-1-(5-fluoropyridin-2-yl)-5-methyl-1H-pyrazol-3-yl)cyclohexanecarboxamide], for which the IC50 at human cathepsin F amounted to 653 nM; on human cathepsin K it was 3.6 nM.
As for `C[C@@H](C#N)NC(=O)[C@@H]1CC(F)(F)CC[C@H]1c1nn(-c2ccc(F)cn2)c(CO)c1-c1ccc(N2CCS(=O)(=O)CC2)cc1` [Example 67, (1R,2R)-N-((S)-1-cyanoethyl)-2-(4-(4-(1,1-dioxidothiomorpholino)phen-yl)-1-(5-fluoropyridin-2-yl)-5-(hydroxymethyl)-1H-pyrazol-3-yl)-5,5-difluorocyclohexanecarbox-amide], the IC50 at human cathepsin F was found to be 146 nM; on human cathepsin K, 1.24 nM.
On the same counts, the results for `N#CC1(NC(=O)[C@@H]2CC(F)(F)CC[C@H]2c2nn(-c3ccc(F)cn3)c(CO)c2-c2ccc(N3CCS(=O)(=O)CC3)cc2)CC1` [Example 68, (1R,2R)-N-(1-cyanocyclopropyl)-2-(4-(4-(1,1-dioxidothiomorpholino)phen-yl)-1-(5-fluoropyridin-2-yl)-5-(hydroxymethyl)-1H-pyrazol-3-yl)-5,5-difluorocyclohexanecarbox-amide] are 125 nM and 1.41 nM.
On the same counts, the results for `CC(C)[C@@H](C#N)NC(=O)[C@@H]1CC(F)(F)CC[C@H]1c1nn(-c2ccc(F)cn2)c(CO)c1-c1ccc(N2CCS(=O)(=O)CC2)cc1` [Example 69, (1R,2R)-N-((S)-1-cyano-2-methylpropyl)-2-(4-(4-(1,1-dioxidothiomorpholino)phen-yl)-1-(5-fluoropyridin-2-yl)-5-(hydroxymethyl)-1H-pyrazol-3-yl)-5,5-difluorocyclohexanecarbox-amide] are 225 nM and 2.68 nM.
On the same counts, the results for `N#CC1(NC(=O)[C@@H]2CC(F)(F)CC[C@H]2c2nn(-c3ccc(F)cn3)c(CO)c2-c2ccc(N3CCS(=O)(=O)CC3)cc2)CC1` [Example 70, (1R,2R)-N-(1-cyanocyclopropyl)-2-(4-(4-(1,1-dioxidothiomorpholino)phen-yl)-1-(5-fluoropyridin-2-yl)-5-(hydroxymethyl)-1H-pyrazol-3-yl)-5,5-difluorocyclohexanecarbox-amide] are 185 nM and 1.9 nM.
As to `N#CC1(NC(=O)[C@@H]2CC(F)(F)CC[C@H]2c2nn(-c3ccc(F)cn3)c(C(F)F)c2-c2ccc(N3CCS(=O)(=O)CC3)cc2)CC1` [Example 71, (1R,2R)-N-(1-cyanocyclopropyl)-2-(5-(difluoromethyl)-4-(4-(1,1-dioxidothiomorpholino)phen-yl)-1-(5-fluoropyridin-2-yl)-1H-pyrazol-3-yl)-5,5-difluorocyclohexanecarbox-amide], the IC50 on human cathepsin F is 149 nM; at human cathepsin K it was 2.35 nM.
On the same counts, the results for `C[C@@H](C#N)NC(=O)[C@@H]1CC(F)(F)CC[C@H]1c1nn2ccccc2c1-c1ccc(N2CCS(=O)(=O)CC2)cc1` [Example 72, (1R,2R)-N-((S)-1-cyanoethyl)-2-(3-(4-(1,1-dioxidothiomorpholino)phen-yl)pyrazolo[1,5-a]pyridin-2-yl)-5,5-difluorocyclohexanecarbox-amide] are 230 nM and 2.66 nM.
On the same counts, the results for `CC(C)[C@@H](C#N)NC(=O)[C@@H]1CC(F)(F)CC[C@H]1c1nn2ccccc2c1-c1ccc(N2CCS(=O)(=O)CC2)cc1` [Example 73, (1R,2R)-N-((S)-1-cyano-2-methylpropyl)-2-(3-(4-(1,1-dioxidothiomorpholino)phen-yl)pyrazolo[1,5-a]pyridin-2-yl)-5,5-difluorocyclohexanecarbox-amide] are 269 nM and 5.19 nM.
On the same counts, the results for `N#CCNC(=O)[C@@H]1CC(F)(F)CC[C@H]1c1nn(-c2ccc(F)cc2)cc1-c1ccc(N2CCS(=O)(=O)CC2)cc1` [Example 81, (1R,2R)-N-(cyanomethyl)-2-(4-(4-(1,1-dioxidothiomorpholino)phen-yl)-1-(4-fluorophenyl)-1H-pyrazol-3-yl)-5,5-difluorocyclohexanecarbox-amide] are 11 nM and 0.37 nM.
With `N#CCNC(=O)[C@H]1CC(F)(F)CC[C@@H]1c1nn(-c2ccc(F)cc2)cc1-c1ccc(N2CCS(=O)(=O)CC2)cc1` [Example 82, (1S,2S)-N-(cyanomethyl)-2-(4-(4-(1,1-dioxidothiomorpholino)phen-yl)-1-(4-fluorophenyl)-1H-pyrazol-3-yl)-5,5-difluorocyclohexanecarbox-amide], the IC50 at human cathepsin F was 1400 nM; on human cathepsin K, 144 nM.
For `N#CC1(NC(=O)[C@@H]2CC(F)(F)CC[C@H]2c2nn(-c3ccc(F)cc3)cc2-c2ccc(N3CCS(=O)(=O)CC3)cc2)CC1` [Example 83, (1R,2R)-N-(1-cyanocyclopropyl)-2-(4-(4-(1,1-dioxidothiomorpholino)phen-yl)-1-(4-fluorophenyl)-1H-pyrazol-3-yl)-5,5-difluorocyclohexanecarbox-amide], in that order: 28 nM and 0.47 nM.
On to `N#CC1(NC(=O)[C@H]2CC(F)(F)CC[C@@H]2c2nn(-c3ccc(F)cc3)cc2-c2ccc(N3CCS(=O)(=O)CC3)cc2)CC1` [Example 84, (1S,2S)-N-(1-cyanocyclopropyl)-2-(4-(4-(1,1-dioxidothiomorpholino)phen-yl)-1-(4-fluorophenyl)-1H-pyrazol-3-yl)-5,5-difluorocyclohexanecarbox-amide], for which the IC50 was 1050 nM at human cathepsin F and 51.6 nM at human cathepsin K.
On the same counts, the results for `N#CC1(NC(=O)[C@@H]2CCCC[C@H]2c2nn(-c3ccc(F)cc3)cc2-c2ccc(N3CCS(=O)(=O)CC3)cc2)CC1` [Example 85, (1R,2R)-N-(1-cyanocyclopropyl)-2-(4-(4-(1,1-dioxidothiomorpholino)phen-yl)-1-(4-fluorophenyl)-1H-pyrazol-3-yl)cyclohexanecarboxamide] are 352 nM and 0.69 nM.
For the compound `N#CC1(NC(=O)[C@@H]2CCCC[C@H]2c2nn(-c3cccc(F)c3)cc2-c2ccc(N3CCS(=O)(=O)CC3)cc2)CC1` [Example 86, (1R,2R)-N-(1-cyanocyclopropyl)-2-(4-(4-(1,1-dioxidothiomorpholino)phen-yl)-1-(3-fluorophenyl)-1H-pyrazol-3-yl)cyclohexanecarboxamide], the values for the IC50 at human cathepsin F and at human cathepsin K were 268 nM and 0.33 nM, respectively.
`COc1ccc(-n2cc(-c3ccc(N4CCS(=O)(=O)CC4)cc3)c([C@@H]3CCCC[C@H]3C(=O)NC3(C#N)CC3)n2)cc1` [Example 87, (1R,2R)-N-(1-cyanocyclopropyl)-2-(4-(4-(1,1-dioxidothiomorpholino)phen-yl)-1-(4-methoxyphenyl)-1H-pyrazol-3-yl)cyclohexanecarboxamide]: the IC50 at human cathepsin F came to 740 nM; at human cathepsin K, 0.99 nM.
Take `N#CC1(NC(=O)[C@@H]2CCCC[C@H]2c2nn(-c3ccc(F)cc3)cc2-c2ccc(C(=O)N3CCOCC3)cc2)CC1` [Example 88, (1R,2R)-N-(1-cyanocyclopropyl)-2-(1-(4-fluorophenyl)-4-(4-(morpholine-4-carbonyl)phenyl)-1H-pyrazol-3-yl)cyclohexanecarboxamide]: the values for the IC50 at human cathepsin F and on human cathepsin K were 1010 nM and 6.9 nM, respectively.
For `N#CC1(NC(=O)[C@@H]2CCCC[C@H]2c2nn(-c3ccc(F)cc3)cc2-c2ccc(C(=O)N3CCNC(=O)C3)cc2)CC1` [Example 89, (1R,2R)-N-(1-cyanocyclopropyl)-2-(1-(4-fluorophenyl)-4-(4-(3-oxopiperazine-1-carbonyl)phenyl)-1H-pyrazol-3-yl)cyclohexanecarboxamide], in that order: 989 nM and 9.37 nM.
On the same counts, the results for `N#CC1(NC(=O)[C@@H]2CCCC[C@H]2c2nn(-c3ccc(F)cc3)cc2-c2ccc(C(=O)N3CCC(O)CC3)cc2)CC1` [Example 90, (1R,2R)-N-(1-cyanocyclopropyl)-2-(1-(4-fluorophenyl)-4-(4-(4-hydroxypiperidine-1-carbonyl)phenyl)-1H-pyrazol-3-yl)cyclohexanecarboxamide] are 1760 nM and 8.01 nM.
For `N#Cc1ccccc1-n1cc(-c2ccc(N3CCS(=O)(=O)CC3)cc2)c([C@@H]2CCCC[C@H]2C(=O)NC2(C#N)CC2)n1` [Example 91, (1R,2R)-N-(1-cyanocyclopropyl)-2-(1-(2-cyanophenyl)-4-(4-(1,1-dioxidothiomorpholino)phen-yl)-1H-pyrazol-3-yl)cyclohexanecarboxamide], in that order: 1020 nM and 1.02 nM.
As to `COc1ccccc1-n1cc(-c2ccc(N3CCS(=O)(=O)CC3)cc2)c([C@@H]2CCCC[C@H]2C(=O)NC2(C#N)CC2)n1` [Example 92, (1R,2R)-N-(1-cyanocyclopropyl)-2-(4-(4-(1,1-dioxidothiomorpholino)phen-yl)-1-(2-methoxyphenyl)-1H-pyrazol-3-yl)cyclohexanecarboxamide], the results for the IC50 at human cathepsin F and on human cathepsin K were 484 nM and 0.95 nM, respectively.
Take `CS(=O)(=O)N1CCN(C(=O)c2ccc(-c3cn(-c4ccc(F)cc4)nc3[C@@H]3CCCC[C@H]3C(=O)NC3(C#N)CC3)cc2)CC1` [Example 93, (1R,2R)-N-(1-cyanocyclopropyl)-2-(1-(4-fluorophenyl)-4-(4-(4-(methylsulfonyl)piperazine-1-carbonyl)phenyl)-1H-pyrazol-3-yl)cyclohexanecarboxamide]: the IC50 at human cathepsin F came out at 2350 nM; at human cathepsin K it was 5.02 nM.
